# According to patent publication US10227331B2 (priority 2015, dated 2019):
# Like-named read-outs stand apart in the source and are kept apart here.
# Key:
# IMP-1 = IMP-1 (Serratia marcescens, UniProt P52699); experiment: biochemical; format: biochemical
# Procedure, shortened: (§1)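 Enzyme activity was measured by fluorescence using CCF2-FA, a cephalosporin-linked 7-hydroxycoumarin/fluorescein substrate, with inhibitor, metallo-β-lactamase and substrate incubated together for 2 hours at 25° C. IC50 came from a 4-parameter fit of inhibition versus log inhibitor concentration.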
# NDM-1 = NDM-1 (Klebsiella pneumoniae, UniProt C7C422); experiment: biochemical; format: biochemical; settings: CCF2-FA substrate, 2 hours at 25° C; read-out: NDM-1 IC50
# Sequence of NDM-1 (C7C422 whole entry, looked up, species assumed): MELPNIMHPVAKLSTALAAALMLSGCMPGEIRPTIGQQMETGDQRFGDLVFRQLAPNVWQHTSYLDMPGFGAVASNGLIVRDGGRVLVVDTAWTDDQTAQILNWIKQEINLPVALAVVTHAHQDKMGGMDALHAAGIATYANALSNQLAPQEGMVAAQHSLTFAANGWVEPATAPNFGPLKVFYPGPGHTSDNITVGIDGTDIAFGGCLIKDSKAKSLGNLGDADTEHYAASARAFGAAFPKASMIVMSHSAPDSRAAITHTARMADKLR
# Procedure, shortened: as §1
# VIM-1 = VIM-1 (Pseudomonas aeruginosa (strain ATCC 15692 / DSM 22644 / CIP 104116 / JCM 14847 / LMG 12228 / 1C / PRS 101 / PAO1), UniProt A0A0F7KYQ8); experiment: biochemical; settings: CCF2-FA substrate, 2 hours at 25° C
# Procedure, shortened: as §1
# [1] = system: Escherichia coli expressing NDM-1 (CLB30005, CLB30016); format: cell-based; settings: with imipenem 1 μg/ml, 95% inhibition of bacterial growth; for Escherichia coli MITC95: NDM-1 (CLB30016)
# Procedure, shortened: (§2)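 Restoration of imipenem susceptibility (1 μg/ml imipenem) was judged by absorbance after 22–24 h at 35° C. Test compound was added to bacteria suspended 1:100 in 1.1× CAMHB from overnight blood-agar cultures.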
# [2] = system: Klebsiella pneumoniae expressing VIM-1 (IHMA599644); format: cell-based; settings: with imipenem 1 μg/ml, 95% inhibition of bacterial growth; for Klebsiella pneumoniae MITC95: VIM-1 (IHMA599644)
# Procedure, shortened: as §2
# [3] = system: Serratia marcescens expressing IMP-1 (CL5741); format: cell-based; settings: with imipenem 1 μg/ml, 95% inhibition of bacterial growth; for Serratia marcescens MITC95: IMP-1 (CL5741)
# Procedure, shortened: as §2
# [4] = system: P. aeruginosa expressing IMP-1, efflux+ (MB9798); format: cell-based, Pseudomonas aeruginosa; settings: for P. aeruginosa expressing IMP-1, efflux+ (MB9798) MITC95: imipenem at 2 μg/mL, in the presence of a class A, C, D serine β-lactamase inhibitor closely related to relebactam; for Efflux ratio: ratio MITC95 PA_9798/MITC95 PA_9799
# Description: (§3) The strain background is Pseudomonas aeruginosa PAO1.
# [5] = system: P. aeruginosa expressing IMP-1, efflux− (MB9799); experiment: Efflux: concentration of MBL inhibitor which restores susceptibility to imipenem; format: cell-based, Pseudomonas aeruginosa; settings: imipenem at 2 μg/mL, in the presence of a class A, C, D serine β-lactamase inhibitor closely related to relebactam
# Description: as §3
# [6] = CCF2-FA substrate, 2 hours at 25° C, read-out: IMP-1 IC50
# Sequence of IMP-1 (P52699 whole entry, looked up, species assumed): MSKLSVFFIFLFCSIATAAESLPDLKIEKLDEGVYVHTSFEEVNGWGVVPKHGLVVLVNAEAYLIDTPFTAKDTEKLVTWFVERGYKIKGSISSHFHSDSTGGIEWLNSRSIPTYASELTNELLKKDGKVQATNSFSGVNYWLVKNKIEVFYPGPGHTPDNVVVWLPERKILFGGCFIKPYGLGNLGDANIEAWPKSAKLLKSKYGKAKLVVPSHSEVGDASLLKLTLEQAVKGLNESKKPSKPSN
SMILES,IC50 (IMP-1; [6]) [nM],IC50 (NDM-1) [nM],IC50 (VIM-1) [nM],Escherichia coli MITC95 [1] [µM],Klebsiella pneumoniae MITC95 [2] [µM],Serratia marcescens MITC95 [3] [µM],"P. aeruginosa expressing IMP-1, efflux+ (MB9798) MITC95 [4] [µM]",Efflux ratio [4],"P. aeruginosa expressing IMP-1, efflux− (MB9799) MITC95 [5] [µM]",Escherichia coli expressing NDM-1 (CLB30016) MITC95 [1] [µM],Klebsiella pneumoniae expressing VIM-1 (IHMA599644) MITC95 [2] [µM],Serratia marcescens expressing IMP-1 (CL5741) MITC95 [3] [µM],IC50 (IMP-1) [nM]
"NCCS(=O)(=O)c1ccc(-c2cccc(NC(=O)[C@H](N)CO)c2)c(-c2nn[nH]n2)c1S(N)(=O)=O [compound 334, (R)-2-amino-N-(4′-((2-aminoethyl)sulfonyl)-3′-sulfamoyl-2′-(2H-tetrazol-5-yl)-[1,1′-biphenyl]-3-yl)-3-hydroxypropanamide]",4.54,2.53,0.504,1.563,3.125,3.125,12.5,8.00,1.563,–,–,–,–
"Cc1ccc2cccc(-c3ccc(S(=O)(=O)C4CNC4)c(S(N)(=O)=O)c3-c3nnn[nH]3)c2n1.O=C(O)C(F)(F)F [Example 122, 3-((4-(2-methylquinolin-8-yl)-2-sulfamoyl-3-(1H-tetrazol-5-yl)phenyl)sulfonyl)azetidin-1-ium 2,2,2-trifluoroacetate]",0.57,0.155,0.324,–,–,–,6.25,4.00,1.563,3.125,6.25,3.125,–
"CNC(=O)c1nc2c(-c3ccc(S(=O)(=O)C4CNC4)c(S(N)(=O)=O)c3-c3nn[nH]n3)cccc2[nH]1 [Example 255, 4-(4-(Azetidin-3-ylsulfonyl)-3-sulfamoyl-2-(2H-tetrazol-5-yl)phenyl)-N-methyl-1H-benzo[d]imidazole-2-carboxamide]",1.66,0.151,0.419,6.25,12.5,6.25,12.5,4.00,3.125,–,–,–,–
C[C@@H](N)CS(=O)(=O)c1ccc(-c2cccc3[nH]cnc23)c(-c2nn[nH]n2)c1S(N)(=O)=O [Example 359],0.454,0.286,0.316,1.563,1.563,1.563,1.563,2.00,0.7813,–,–,–,–
"Nc1ccc(-c2ccc([S+]([O-])C3CCNCC3)c(S(N)(=O)=O)c2-c2nn[nH]n2)cn1 (stereo not drawn) [Example 10, 3-(6-aminopyridin-3-yl)-6-(piperidin-4-ylsulfinyl)-2-(2H-tetrazol-5-yl)benzenesulfonamide]",27.3,3.2,6.46,–,–,–,6.25,2.00,3.125,6.25,6.25,6.25,–
"Cn1cc(C(=O)C(F)(F)F)c2c(-c3ccc(S(=O)(=O)C4CNC4)c(S(N)(=O)=O)c3-c3nnn[nH]3)cccc21 [Example 229, 6-(azetidin-3-ylsulfonyl)-3-(1-methyl-3-(2,2,2-trifluoroacetyl)-1H-indol-4-yl)-2-(1H-tetrazol-5-yl)benzenesulfonamide]",–,0.139,0.474,–,–,–,25,4.00,6.25,6.25,12.5,6.25,1.74
"NCCS(=O)(=O)c1ccc(-c2ccc(C3CCNCC3)cc2)c(-c2nn[nH]n2)c1S(N)(=O)=O [Example 322, 4-((2-aminoethyl)sulfonyl)-4′-(piperidin-4-yl)-2-(2H-tetrazol-5-yl)-[1,1′-biphenyl]-3-sulfonamide]",0.17,0.731,0.205,1.563,3.125,1.563,1.563,2.00,0.7813,–,–,–,–
"NS(=O)(=O)c1c(SC2CNC2)ccc(-c2ccc(C3CCNCC3)cc2)c1-c1nn[nH]n1 [Example 4, 4-(Azetidin-3-ylthio)-4′-(piperidin-4-yl)-2-(2H-tetrazol-5-yl)-[1,1′-biphenyl]-3-sulfonamide]",15.1,11.5,53.5,–,–,–,1.563,4.00,0.3906,0.7813,3.125,1.563,–
"NC(=O)CN1CC(S(=O)(=O)c2ccc(-c3cccc4[nH]c(N)nc34)c(-c3nn[nH]n3)c2S(N)(=O)=O)C1 [Example 50, 2-(3-(4-(2-amino-1H-benzo[d]imidazol-4-yl)-2-sulfamoyl-3-(2H-tetrazol-5-yl)phenylsulfonyl)azetidin-1-yl)acetamide]",1.44,0.242,0.585,–,–,–,3.125,1.00,3.125,3.125,6.25,3.125,–
"NCCS(=O)(=O)c1ccc(-c2ccc3[nH]c(N)nc3c2)c(-c2nn[nH]n2)c1S(N)(=O)=O [Example 69, 3-(2-amino-1H-benzo[d]imidazol-5-yl)-6-(2-aminoethylsulfonyl)-2-(2H-tetrazol-5-yl)benzenesulfonamide]",2.77,1.25,0.485,–,–,–,3.125,7.02,0.4453,0.25,0.8906,0.4453,–
"CS(=O)(=O)c1ccc(-c2ccc(NS(=O)(=O)C3CC3)cc2)c(-c2nn[nH]n2)c1S(N)(=O)=O [Example 241, 4′-(Cyclopropanesulfonamido)-4-(methylsulfonyl)-2-(2H-tetrazol-5-yl)-[1,1′-biphenyl]-3-sulfonamide]",0.0444,0.658,0.0868,–,–,–,12.5,8.00,1.563,6.25,12.5,3.125,–
